Results reported in US20130072519A1, “2-PHENYL BENZOYLAMIDES” (priority 2010, published 2013).

What follows are compounds tested on Apolipoprotein B Secretion from HepG2 Cells (assay: Inhibition of Apolipoprotein B secretion from HepG2 cells (ELISA)). Details: HepG2 cells, 22-24 hours incubation, ApoB ELISA; Low/High IC50 columns give the 95% confidence interval.
Assay type: cell-based, human
Protocol: Inhibition of Apolipoprotein B Secretion from HepG2 Cells
To assess the inhibitory effect of the compounds of the invention on ApoB production, an endogenously ApoB producing cell line, HEPG2, was implemented in an in vitro ELISA assay. HEPG2 cells are plated at 25,000 per well (96-well plates) in media consisting of DMEM Low Glucose, 1% NEAA (non-essential amino acids), 10% FBS (heat inactivated), 1% L-Glutamine, and 1% Antimycotic-Antibiotic and incubated for 16-18 hours at 37° C. and 5% CO2. After the 16-18 hour incubation, a 12 point half-log serial of the inhibitor (1000 nM-0.003 nM) is prepared, and 1.5 ul of the serial dilution is added to HEPG2 cells, which have had their media decanted and replaced with 148 ul of fresh media, and the cells are incubated for 22-24 hours at 37° C. and 5% CO2. Two and a half hours before the 22-24 hour incubation period is completed, Nunc Maxisorp plates are coated with 100 ul of primary (coating) antibody (goat anti-apoB), diluting to a ratio of 1:1000 in 1% Carbonate-Bicarbonate Coating Buffer and incubated for at least 2 hours at room temperature before the primary antibody is decanted and the wells of the microplate are washed with 200 ul of washing buffer (1% PBS, 0.05% Tween20). Next, 200 ul of blocking buffer (1% PBS, 1:500 Western Block, 5 mg/ml BSA) is added to the wells of the microplate, and incubated for at least 30 mins. Following the 22-24 hours incubation period, cell plates are removed from the incubator, 20 ul of supernatant from each well is aspirated, added to a corresponding well in 96 well plate containing 140 ul of diluent (1:2-Blocking Buffer: Washing Buffer), and mixed. Then, 120 ul is aspirated from the dilutent-supernatant plate, added to the blocked Nunc Maxisorp 96 well plate, and placed at room temperature on a shaker to mix for at least 2 hours. The secondary (capture) antibody (mouse anti-human apoB) is prepared at a ratio of 1:4000, and the detection antibody (goat anti-mouse HRP conjugated antibody) at a ratio of 1:10,000. For each antibody, 100 ul is added to each well of the microplate and the microplate is incubated at room temperature for 2 hours, washing the microplates between each antibody addition. Colorimetric development is achieved by adding 50 ul of TMB reagent to each well, incubating for 5 mins at room temperature, then adding 50 ul of 2M Sulfuric Acid to each well. Absorbance at 450 nm is monitored in an Envision plate reader to measure the amount of ApoB formed.
Results reported as average IC50, low and high IC50 range (95% confidence interval).

Question: Which IC50 does the source give for `CCOC(=O)C1(COC(=O)Cc2ccc(NC(=O)c3ccccc3-c3ccc(C(F)(F)F)cc3)c(C(=O)N(C)C)c2)OC(=O)c2ccccc21` (stereo not shown) [Example 31] here?
Answer: 10.1 nM

Question: Which IC50 does the source give for `CCOC(=O)C1(COC(=O)Cc2ccc(NC(=O)c3ccccc3-c3ccc(C(F)(F)F)cc3)c(C(=O)N(C)C)c2)OC(=O)c2ccccc21` (stereo not shown) [Example 32] here?
Answer: 45.5 nM

Question: Which IC50 does the source give for `Cc1cccc(C(=O)Nc2ccc(CC(=O)OCC3(C(=O)OCc4ccccc4)c4ccccc4C(=O)N3C)cc2C(=O)N(C)C)c1-c1ccc(C(F)(F)F)cc1` (single isomer, unassigned; (+)) [Example 10, (+)-Benzyl 1-({2-[3-(Dimethylcarbamoyl)-4-({[6-methyl-4′-(trifluoromethyl)biphenyl-2-yl]carbonyl}amino)phenyl]acetoxy}methyl)-2-methyl-3-oxoisoindoline-1-carboxylate] here?
Answer: 14.1 nM

Question: With `CCOC(=O)C1(COC(=O)Cc2ccc(NC(=O)c3ccccc3-c3ccc(C(F)(F)F)cc3)c(C(=O)N(C)C)c2)NC(=O)c2ccccc21` (stereo not shown) [Example 25] as the compound, how does the IC50 read?
Answer: 297 nM

Question: `CCOC(=O)C1(COC(=O)Cc2ccc(NC(=O)c3cccc(C)c3-c3ccc(C(F)(F)F)cc3)c(C(=O)N(C)C)c2)c2ncccc2C(=O)N1CC` (stereo not shown) [Example 48, Ethyl 7-({2-[3-(Dimethylcarbamoyl)-4-({[6-methyl-4′-(trifluoromethyl)biphenyl-2-yl]carbonyl}amino)phenyl]acetoxy}methyl)-6-ethyl-5-oxo-6,7-dihydro-5H-pyrrolo[3,4-b]pyridine-7-carboxylate] was tested. Which IC50 did it give?
Answer: 0.203 nM

Question: How did the IC50 turn out when `Cc1cccc(C(=O)Nc2ccc(CC(=O)OCC3(C(=O)OCc4ccccc4)c4ccccc4C(=O)N3C)cc2C(=O)N(C)C)c1-c1ccc(C(F)(F)F)cc1` (single isomer, unassigned; (-)) [Example 9, (−)-Benzyl 1-({2-[3-(Dimethylcarbamoyl)-4-({[6-methyl-4′-(trifluoromethyl)biphenyl-2-yl]carbonyl}amino)phenyl]acetoxy}methyl)-2-methyl-3-oxoisoindoline-1-carboxylate] was run?
Answer: 0.2 nM

Question: With `CCOC(=O)[C@]1(COC(=O)Cc2ccc(NC(=O)c3ccccc3-c3ccc(OC(C)C)cc3)c(C(=O)N(C)C)c2)c2ccccc2C(=O)N1C` [Example 77, Ethyl (1R)-1-({2-[3-(dimethylcarbamoyl)-4-{[(4′-isopropoxybiphenyl-2-yl)carbonyl]amino}phenyl]acetoxy}methyl)-2-methyl-3-oxoisoindoline-1-carboxylate] as the compound, how does the IC50 read?
Answer: 0.119 nM

Question: Which IC50 does the source give for `CCOC(=O)C1(COC(=O)Cc2ccc(NC(=O)c3ccccc3-c3ccc(C(F)(F)F)cc3)c(C(=O)N(C)C)c2)CCc2ccccc21` (stereo not shown) [Example 35] here?
Answer: 0.46 nM

Question: For `CCOC(=O)C1(COC(=O)Cc2ccc(NC(=O)c3ccccc3-c3ccc(C(F)(F)F)cc3)c(C(=O)N(C)C)c2)c2ccccc2C(=O)N1CC` (stereo not shown) [Example 19], which IC50 is on record?
Answer: 0.107 nM

Question: `COC(=O)C1(COC(=O)Cc2ccc(NC(=O)c3ccccc3-c3ccc(C(F)(F)F)cc3)c(C(=O)N(C)C)c2)CCc2ccccc21` (stereo not shown) [Example 34] was tested. Which IC50 did it give?
Answer: 5.54 nM

Question: With `CCOC(=O)C1(COC(=O)Cc2ccc(NC(=O)c3ccccc3-c3ccc(C(F)(F)F)cc3)c(C(=O)N(C)C)c2)CCc2ccccc21` (stereo not shown) [Example 36] as the compound, how does the IC50 read?
Answer: 4.6 nM

Question: `CCOC(=O)C1(COC(=O)Cc2ccc(NC(=O)c3cccc(C)c3-c3ccc(C(F)(F)F)cc3)c(C(=O)N(C)C)c2)c2ncccc2C(=O)N1CC` (stereo not shown) [Example 47, Ethyl 7-({2-[3-(Dimethylcarbamoyl)-4-({[6-methyl-4′-(trifluoromethyl)biphenyl-2-yl]carbonyl}amino)phenyl]acetoxy}methyl)-6-ethyl-5-oxo-6,7-dihydro-5H-pyrrolo[3,4-b]pyridine-7-carboxylate] was tested. Which IC50 did it give?
Answer: 7.56 nM

Same assay, conditions: Homo sapiens, HepG2, HepG2 cells, 22-24 hours incubation, ApoB ELISA; Low/High IC50 columns give the 95% confidence interval

Question: With `CCOC(=O)[C@]1(COC(=O)Cc2ccc(NC(=O)c3ccccc3-c3ccc(C(F)(F)F)cc3)c(C(=O)N(C)C)c2)c2ccccc2C(=O)N1C` [Example 1, Ethyl 1R-({2-[3-(dimethylcarbamoyl)-4-({[4′-(trifluoromethyl)biphenyl-2-yl]carbonyl}amino)phenyl]acetoxy}methyl)-2-methyl-3-oxoisoindoline-1-carboxylate] as the compound, how does the IC50 read?
Answer: 0.495 nM

Question: With `CCOC(=O)[C@]1(COC(=O)Cc2ccc(NC(=O)c3ccccc3-c3ccccc3OC)c(C(=O)N(C)C)c2)c2ccccc2C(=O)N1C` [Example 75, ethyl (1R)-1-({2-[3-(dimethylcarbamoyl)-4-{[(2′-methoxybiphenyl-2-yl)carbonyl]amino}phenyl]acetoxy}methyl)-2-methyl-3-oxoisoindoline-1-carboxylate] as the compound, how does the IC50 read?
Answer: 4.16 nM

Question: How did the IC50 turn out when `CCOC(=O)C1(COC(=O)Cc2ccc(NC(=O)c3ccccc3-c3ccc(C(F)(F)F)cc3)c(C(=O)N(C)C)c2)CCCc2ccccc21` (single isomer, unassigned; (-)) [Example 45, (−)-Ethyl 1-({2-[3-(Dimethylcarbamoyl)-4-({[4′-(trifluoromethyl)biphenyl-2-yl]carbonyl}amino)phenyl]acetoxy}methyl)-1,2,3,4-tetrahydronaphthalene-1-carboxylate] was run?
Answer: 1.63 nM

Question: `CCOC(=O)C1(COC(=O)Cc2ccc(NC(=O)c3cccc(C)c3-c3ccc(OC(C)C)cc3)c(C(=O)N(C)C)c2)CCc2cccnc21` (stereo not shown) [Example 57, ethyl 7-({2-[3-(dimethylcarbamoyl)-4-{[(4′-isopropoxy-6-methylbiphenyl-2-yl)carbonyl]amino}phenyl]acetoxy}methyl)-6,7-dihydro-5H-cyclopenta[b]pyridine-7-carboxylate] was tested. Which IC50 did it give?
Answer: 1.37 nM

Question: How did the IC50 turn out when `CCOC(=O)C1(COC(=O)Cc2ccc(NC(=O)c3ccc(C(F)(F)F)cc3-c3ccc(C(F)(F)F)cc3)c(C(=O)N(C)C)c2)CCc2cccnc21` (stereo not shown) [Example 58, ethyl 7-({2-[4-({[4′,5-bis(trifluoromethyl)biphenyl-2-yl]carbonyl}amino)-3-(dimethylcarbamoyl)phenyl]acetoxy}methyl)-6,7-dihydro-5H-cyclopenta[b]pyridine-7-carboxylate] was run?
Answer: 7.18 nM

Question: For `CCOC(=O)C1(COC(=O)Cc2ccc(NC(=O)c3cccc(C)c3-c3ccc(C(F)(F)F)cc3)c(C(=O)N(C)C)c2)c2ncccc2C(=O)N1CC` (racemic) [Example 44], which IC50 is on record?
Answer: 0.328 nM

Question: `CCOC(=O)C1(COC(=O)Cc2ccc(NC(=O)c3cccc(C)c3-c3ccc(C(C)(C)C)cc3)c(C(=O)N(C)C)c2)OC(=O)c2ccccc21` (stereo not shown) [Example 2] was tested. Which IC50 did it give?
Answer: 519 nM

Question: With `CCOC(=O)C1(COC(=O)Cc2ccc(NC(=O)c3ccccc3-c3ccc(C(F)(F)F)cc3)c(C(=O)N(C)C)c2)CCc2cccnc21` (racemic) [Example 37] as the compound, how does the IC50 read?
Answer: 8.47 nM

Question: With `CCOC(=O)C1(COC(=O)Cc2ccc(NC(=O)c3ccccc3-c3ccc(C(F)(F)F)cc3)c(C(=O)N(C)C)c2)OC(=O)c2ccccc21` (racemic) [Example 30] as the compound, how does the IC50 read?
Answer: 6.5 nM

Question: With `CCOC(=O)C1(COC(=O)Cc2ccc(NC(=O)c3ccccc3-c3ccc(C(F)(F)F)cc3)c(C)c2)OC(=O)c2ccccc21` (stereo not shown) [Example 40] as the compound, how does the IC50 read?
Answer: 159 nM

Question: With `CCOC(=O)C1(COC(=O)Cc2ccc(NC(=O)c3ccccc3-c3ccc(C(F)(F)F)cc3)c(C(=O)N(C)C)c2)c2ccccc2C(=O)N1C` (racemic) [Example 4] as the compound, how does the IC50 read?
Answer: 0.846 nM

Question: Which IC50 does the source give for `COC(=O)C1(COC(=O)Cc2ccc(NC(=O)c3ccccc3-c3ccc(C(F)(F)F)cc3)c(C(=O)N(C)C)c2)CCc2ccccc21` (stereo not shown) [Example 33] here?
Answer: 6.5 nM

Question: Which IC50 does the source give for `CCOC(=O)C1(COC(=O)Cc2ccc(NC(=O)c3ccccc3-c3ccc(C(F)(F)F)cc3)c(C(=O)N(C)C)c2)CCc2ccccc21` (racemic) [Example 29] here?
Answer: 2.04 nM

Question: With `CCOC(=O)C1(COC(=O)Cc2ccc(NC(=O)c3ccccc3-c3ccc(OC(C)C)cc3)c(C(=O)N(C)C)c2)c2ccccc2C(=O)N1C` (stereo not shown) [Example 54, ethyl 1-({2-[3-(dimethylcarbamoyl)-4-{[(4′-isopropoxybiphenyl-2-yl)carbonyl]amino}phenyl]acetoxy}methyl)-2-methyl-3-oxoisoindoline-1-carboxylate] as the compound, how does the IC50 read?
Answer: 0.124 nM

Question: For `CCOC(=O)[C@]1(COC(=O)Cc2ccc(NC(=O)c3cccc(C)c3-c3ccc(C(F)(F)F)cc3)c(C(=O)N3CCCCC3)c2)c2ccccc2C(=O)N1C` [Example 62, ethyl (1R)-2-methyl-1-({2-[4-({[6-methyl-4′-(trifluoromethyl)biphenyl-2-yl]carbonyl}amino)-3-(piperidin-1-ylcarbonyl)phenyl]acetoxy}methyl)-3-oxoisoindoline-1-carboxylate], which IC50 is on record?
Answer: 1.17 nM

Question: How did the IC50 turn out when `CCOC(=O)C1(COC(=O)Cc2ccc(NC(=O)c3ccccc3-c3ccc(C(F)(F)F)cc3)c(C(=O)N(C)C)c2)c2ccccc2C(=O)N1C(C)C` (racemic) [Example 14] was run?
Answer: 2.16 nM
